Measurements published in ChEMBL document CHEMBL5550171, “Poly (ADP-ribose) polymerase (PARP) inhibitors as anticancer agents: An outlook on clinical progress, synthetic strategies, biological activity, and structure-activity relationship” (Eur J Med Chem, 2024).
pIC50: −log10 of the molar value. Blank lines part the entries; values can stand above or below the molecule they belong to.

Tests used:
[1] = biological target: Protein mono-ADP-ribosyltransferase PARP3 (Homo sapiens, UniProt Q9Y6F1); experiment: Inhibition of PARP3 (unknown origin)
Protein mono-ADP-ribosyltransferase PARP3, sequence (Q9Y6F1 whole entry): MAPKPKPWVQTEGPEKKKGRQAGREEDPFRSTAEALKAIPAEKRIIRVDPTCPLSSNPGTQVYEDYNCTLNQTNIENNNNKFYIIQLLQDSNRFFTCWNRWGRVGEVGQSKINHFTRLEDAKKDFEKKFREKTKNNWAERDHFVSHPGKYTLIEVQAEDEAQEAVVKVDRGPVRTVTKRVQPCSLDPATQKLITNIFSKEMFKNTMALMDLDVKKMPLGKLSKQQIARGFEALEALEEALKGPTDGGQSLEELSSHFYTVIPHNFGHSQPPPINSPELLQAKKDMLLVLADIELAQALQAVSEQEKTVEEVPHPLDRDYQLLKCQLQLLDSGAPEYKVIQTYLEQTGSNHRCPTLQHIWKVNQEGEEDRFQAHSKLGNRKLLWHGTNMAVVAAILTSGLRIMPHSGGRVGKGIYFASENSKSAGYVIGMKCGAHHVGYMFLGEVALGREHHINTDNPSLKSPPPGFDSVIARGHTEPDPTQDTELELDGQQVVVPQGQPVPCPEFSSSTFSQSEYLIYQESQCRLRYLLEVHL

HCT-116 [2] = experiment: Cytotoxicity against human HCT-116 cells assessed as reduction in cell growth incubated for 96 hrs by MTT assay; type: functional, cell-based; details: HCT-116, 96 h
[3] = biological target: T1, Poly [ADP-ribose] polymerase 1 (Homo sapiens, UniProt P09874); experiment: Inhibition of human PARP1
T1 sequence (P09874 whole entry): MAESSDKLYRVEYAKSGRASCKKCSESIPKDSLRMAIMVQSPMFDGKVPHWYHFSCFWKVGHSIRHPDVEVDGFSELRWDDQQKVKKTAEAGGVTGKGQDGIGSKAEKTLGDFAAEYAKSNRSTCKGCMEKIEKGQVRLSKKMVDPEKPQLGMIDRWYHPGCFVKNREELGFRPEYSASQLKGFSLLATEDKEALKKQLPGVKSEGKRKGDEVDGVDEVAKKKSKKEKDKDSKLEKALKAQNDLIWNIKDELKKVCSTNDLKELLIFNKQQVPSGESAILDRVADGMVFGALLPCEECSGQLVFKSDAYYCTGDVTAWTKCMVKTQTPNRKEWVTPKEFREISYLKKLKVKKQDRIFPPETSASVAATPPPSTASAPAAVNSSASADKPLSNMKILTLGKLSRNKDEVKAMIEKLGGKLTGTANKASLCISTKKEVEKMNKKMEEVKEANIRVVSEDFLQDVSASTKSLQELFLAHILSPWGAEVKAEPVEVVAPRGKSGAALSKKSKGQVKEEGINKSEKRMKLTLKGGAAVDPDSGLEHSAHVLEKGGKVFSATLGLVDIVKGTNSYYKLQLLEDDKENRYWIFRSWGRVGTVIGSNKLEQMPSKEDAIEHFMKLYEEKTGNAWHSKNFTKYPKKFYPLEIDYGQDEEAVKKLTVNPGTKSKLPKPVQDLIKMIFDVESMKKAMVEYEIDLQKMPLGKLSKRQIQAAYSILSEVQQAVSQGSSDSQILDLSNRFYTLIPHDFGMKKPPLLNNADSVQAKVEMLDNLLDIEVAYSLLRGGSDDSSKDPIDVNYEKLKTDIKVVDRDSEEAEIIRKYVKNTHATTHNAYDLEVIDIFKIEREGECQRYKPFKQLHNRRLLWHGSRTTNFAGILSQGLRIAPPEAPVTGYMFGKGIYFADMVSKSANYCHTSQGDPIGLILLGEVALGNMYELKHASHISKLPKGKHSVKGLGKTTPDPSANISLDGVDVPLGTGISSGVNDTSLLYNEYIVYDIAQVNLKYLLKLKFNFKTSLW

MDA-MB-436 [4] = experiment: Antiproliferative activity against human MDA-MB-436 cells; type: functional, cell-based
[5] = Cytotoxicity against human WI-38 cells assessed as reduction in cell viability incubated for 48 hrs by MTT assay; type: toxicity, cell-based
MDA-MB-157 = experiment: Anticancer activity against human MDA-MB-157 cells assessed as cell growth inhibition; type: functional, cell-based
HCC1395 = experiment: Anticancer activity against human HCC1395 cells assessed as cell growth inhibition; type: functional, cell-based
[6] = Antiproliferative activity against human MCF10A cells assessed as inhibition of cell growth incubated for 72 hrs by alamar blue assay; type: functional, cell-based; details: MCF10AT1, 72 h
[7] = biological target: T1, Poly [ADP-ribose] polymerase 1; experiment: Inhibition of human recombinant PARP1 at 0.01 uM relative to control
[8] = biological target: T1, Poly [ADP-ribose] polymerase 1; experiment: Inhibition of human recombinant PARP1 at 0.1 uM relative to control
[9] = biological target: T1, Poly [ADP-ribose] polymerase 1; experiment: Inhibition of human recombinant PARP1 at 1 uM relative to control
[10] = biological target: T1, Poly [ADP-ribose] polymerase 1; experiment: Inhibition of human recombinant PARP1 at 10 uM relative to control
[11] = biological target: T1, Poly [ADP-ribose] polymerase 1; experiment: Inhibition of human recombinant PARP1 at 100 uM relative to control
[12] = biological target: T2, Poly [ADP-ribose] polymerase 2 (Homo sapiens, UniProt Q9UGN5); experiment: Inhibition of PARP2 (unknown origin)
T2 sequence (Q9UGN5 whole entry): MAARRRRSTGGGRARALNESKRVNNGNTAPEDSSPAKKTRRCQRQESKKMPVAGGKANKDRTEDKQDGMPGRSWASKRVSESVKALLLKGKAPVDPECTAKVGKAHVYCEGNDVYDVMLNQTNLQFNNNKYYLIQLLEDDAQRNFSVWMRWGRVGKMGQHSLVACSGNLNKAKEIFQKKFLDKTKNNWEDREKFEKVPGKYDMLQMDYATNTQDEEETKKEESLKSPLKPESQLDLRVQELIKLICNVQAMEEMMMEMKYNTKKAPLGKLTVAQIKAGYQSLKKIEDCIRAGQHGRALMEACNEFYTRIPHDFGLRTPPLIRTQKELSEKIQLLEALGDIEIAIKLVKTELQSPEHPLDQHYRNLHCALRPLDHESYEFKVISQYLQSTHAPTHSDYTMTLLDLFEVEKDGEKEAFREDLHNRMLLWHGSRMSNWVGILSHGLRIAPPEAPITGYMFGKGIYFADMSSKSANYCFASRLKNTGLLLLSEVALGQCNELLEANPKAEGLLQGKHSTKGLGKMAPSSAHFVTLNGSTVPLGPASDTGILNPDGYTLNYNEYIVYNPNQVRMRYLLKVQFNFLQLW

HepG2 = experiment: Antiproliferative activity against human HepG2 cells assessed as reduction in cell growth incubated for 24 hrs by MTT assay; type: functional, cell-based; details: HepG2, 24 h
A549 [13] = experiment: Antiproliferative activity against human A549 cells assessed as reduction in cell growth incubated for 24 hrs by MTT assay; type: functional, cell-based; details: A549, 24 h
MCF7 [14] = experiment: Antiproliferative activity against human MCF7 cells assessed as reduction in cell growth incubated for 24 hrs by MTT assay; type: functional, cell-based; details: MCF7, 24 h
HCT-116 [15] = experiment: Antiproliferative activity against human HCT-116 cells assessed as reduction in cell growth incubated for 24 hrs by MTT assay; type: functional, cell-based; details: HCT-116, 24 h
MCF7 [16] = experiment: Cytotoxicity against human MCF7 cells assessed as reduction in cell growth incubated for 72 hrs by alamar blue reagent based analysis; type: functional; details: MCF7, 72 h
MDA-MB-231 [17] = experiment: Cytotoxicity against human MDA-MB-231 cells assessed as reduction in cell growth incubated for 72 hrs by alamar blue reagent based analysis; type: functional; details: MDA-MB-231, 72 h
SK-OV-3 [18] = experiment: Antiproliferative activity against human SK-OV-3 cells assessed as reduction in cell growth; type: functional, cell-based
A2780 = experiment: Antiproliferative activity against human A2780 cells assessed as reduction in cell growth; type: functional, cell-based
MCF7 [19] = experiment: Antiproliferative activity against human MCF7 cells assessed as reduction in cell growth; type: functional, cell-based
MDA-MB-231 [20] = experiment: Antiproliferative activity against human MDA-MB-231 cells assessed as reduction in cell growth; type: functional, cell-based
HCT-116 [21] = experiment: Antiproliferative activity against human HCT-116 cells assessed as reduction in cell growth; type: functional, cell-based
SK-OV-3 [22] = experiment: Inhibition of colony formation in human SK-OV-3 cells at 10 uM by crystal violet staining assay; type: functional
[23] = biological target: T1, Poly [ADP-ribose] polymerase 1; experiment: Inhibition of PARP1 (unknown origin) using biotinylated NAD+ as substrate by luminescence assay
[24] = biological target: T2, Poly [ADP-ribose] polymerase 2; experiment: Inhibition of PARP2 (unknown origin) using biotinylated NAD+ as substrate by luminescence assay
[25] = biological target: T1, Poly [ADP-ribose] polymerase 1; experiment: Inhibition of PARP1 (unknown origin) at 10 uM relative to control
[26] = biological target: T2, Poly [ADP-ribose] polymerase 2; experiment: Inhibition of PARP2 (unknown origin) at 10 uM relative to control
MDA-MB-436 [27] = experiment: Cytotoxicity against human MDA-MB-436 cells assessed as reduction in cell viability incubated for 24 hrs by MTS assay; type: functional, cell-based; details: MDA-MB-436, 24 h
MDA-MB-231 [28] = experiment: Cytotoxicity against human MDA-MB-231 cells assessed as reduction in cell viability incubated for 24 hrs by MTS assay; type: functional, cell-based; details: MDA-MB-231, 24 h
MCF7 [29] = experiment: Cytotoxicity against human MCF7 cells assessed as reduction in cell viability incubated for 24 hrs by MTS assay; type: functional, cell-based; details: MCF7, 24 h
[30] = Microsomal stability in human liver microsomes assessed as half life measured for 48 hrs by LC-MS/MS analysis; type: ADME, Microsome
[31] = Microsomal stability in rat liver microsomes assessed as half life measured for 48 hrs by LC-MS/MS analysis; type: ADME, Microsome
MDA-MB-231 [32] = experiment: Cytotoxicity against human MDA-MB-231 cells assessed as reduction in cell viability measured for 48 hrs by MTT assay; type: functional, cell-based; details: MDA-MB-231, 48 h
MCF7 [33] = experiment: Cytotoxicity against human MCF7 cells assessed as reduction in cell viability measured for 48 hrs by MTT assay; type: functional, cell-based; details: MCF7, 48 h
MDA-MB-436 [34] = experiment: Antiproliferative activity against human MDA-MB-436 cells assessed as reduction in cell viability incubated for 72 hrs by MTT assay; type: functional, cell-based; details: MDA-MB-436, 72 h
[35] = biological target: T1, Poly [ADP-ribose] polymerase 1; experiment: Inhibition of human recombinant PARP-1 by ELISA assay
[36] = biological target: T1, Poly [ADP-ribose] polymerase 1; experiment: Inhibition of PARP1 (unknown origin)
RPMI-8226 = experiment: Growth inhibition of human RPMI-8226 cells; type: functional
NCI-H226 = experiment: Growth inhibition of human NCI-H226 cells; type: functional
HCT-116 [37] = experiment: Growth inhibition of human HCT-116 cells; type: functional
SNB-75 = experiment: Growth inhibition of human SNB-75 cells; type: functional
LOX IMVI = experiment: Growth inhibition of human LOX IMVI cells; type: functional
IGROV-1 = experiment: Growth inhibition of human IGROV-1 cells; type: functional
MDA-MB-468 = experiment: Growth inhibition of human MDA-MB-468 cells; type: functional
HCT-116 [38] = experiment: Antiproliferative activity against human HCT-116 cells assessed as reduction in cell viability incubated for 72 hrs by MTT assay; type: functional, cell-based; details: HCT-116, 72 h
MCF7 [39] = experiment: Antiproliferative activity against human MCF7 cells assessed as reduction in cell viability incubated for 72 hrs by MTT assay; type: functional, cell-based; details: MCF7, 72 h
Jurkat = experiment: Antiproliferative activity against human Jurkat cells assessed as reduction in cell viability incubated for 72 hrs by MTT assay; type: functional, cell-based
A549 [40] = experiment: Antiproliferative activity against human A549 cells assessed as reduction in cell viability incubated for 72 hrs by MTT assay; type: functional, cell-based; details: A549, 72 h
SK-OV-3 [41] = experiment: Antiproliferative activity against human SK-OV-3 cells assessed as reduction in cell viability incubated for 72 hrs by MTT assay; type: functional, cell-based; details: SK-OV-3, 72 h
KB 3-1 = experiment: Antiproliferative activity against human KB 3-1 cells assessed as reduction in cell viability incubated for 72 hrs by MTT assay; type: functional, cell-based; details: KB 3-1, 72 h
[42] = Cytotoxicity against mouse BALB/3T3 cells assessed as reduction in cell viability incubated for 72 hrs by MTT assay; type: toxicity, cell-based
MCF7 [43] = experiment: Antiproliferative activity against human MCF7 cells assessed as reduction in cell viability at 10 uM incubated for 24 hrs by MTT assay; type: functional
MCF7 [44] = experiment: Antiproliferative activity against human MCF7 cells assessed as reduction in cell viability at 10 uM incubated for 48 hrs by MTT assay; type: functional
MCF7 [45] = experiment: Antiproliferative activity against human MCF7 cells assessed as reduction in cell viability at 10 uM incubated for […] by MTT assay; type: functional
MCF7 [46] = experiment: Cytotoxicity against human MCF7 cells harbouring BRCA1 assessed as inhibition of cell growth measured after 72 hrs by MTT assay; type: functional, cell-based; details: MCF7, 72 h
[47] = biological target: T1, Poly [ADP-ribose] polymerase 1; experiment: Inhibition of human recombinant PARP1 expressed in Escherichia coli BL21(DE3)

SMILES: O=c1[nH]c2c(c(=O)[nH]1)C(c1cccs1)c1[nH]c(=S)n(-c3ccccc3)c(=O)c1O2 (stereo unspecified)
- pIC50 (HCT-116 [2]): 4.34

SMILES: Cc1cc(C)n(S(=O)(=O)c2ccc3[nH]c(=O)c(=O)[nH]c3c2)n1
- pIC50 [3]: 8.36
- pIC50 (MDA-MB-436 [4]): 5.59
- IC50 at 48 h [5]: 81.7 µM

SMILES: Cn1ncnc1[C@H]1c2n[nH]c(=O)c3cc(F)cc(c23)N[C@@H]1c1ccc(F)cc1 [TALAZOPARIB]
- pIC50 (MDA-MB-157): 9.43
- pIC50 (HCC1395): 9.34

SMILES: O=C1CCc2cc(-c3ccccc3F)ccc2C2(CCCCC2)N1
- pIC50 [12]: 7.52
- pIC50 (HepG2): 5.70
- pIC50 (A549 [13]): 5.44
- pIC50 (MCF7 [14]): 5.37
- pIC50 (HCT-116 [15]): 5.40

SMILES: COc1ccc(Cc2nnc(-c3cccc(-c4ccnc(F)c4C)c3)o2)cc1OC
- pIC50 (MCF7 [16]): 4.82
- pIC50 (MDA-MB-231 [17]): 4.72

SMILES: NC(=O)c1cccc2[nH]c(C3CCN(C4CCC(F)(F)CC4)CC3)nc12
- pIC50 [23]: 8.37
- pIC50 [24]: 8.80
- inhibition [25]: 47.9%
- inhibition [26]: 90.8%
- pIC50 (MDA-MB-436 [27]): 4.55
- pIC50 (MDA-MB-231 [28]): 4.01
- pIC50 (MCF7 [29]): 4.22
- half-life [30]: 4.38 h
- half-life [31]: > 16.7 h

SMILES: CCOC(=O)c1ccc(NC(=O)CS/C(=C\C(=O)c2sc(Nc3ccccn3)nc2C)c2ccccc2F)cc1
- pIC50 [36]: 5.64
- pIC50 [12]: 6.14
- GI50 (RPMI-8226): 8.29 µM
- GI50 (NCI-H226): 2.52 µM
- GI50 (HCT-116 [37]): 23 µM
- GI50 (SNB-75): 3.58 µM
- GI50 (LOX IMVI): 0.312 µM
- GI50 (IGROV-1): 12.1 µM
- GI50 (MDA-MB-468): 4.24 µM
- pIC50 (HCT-116 [38]): 5.21
- pIC50 (MCF7 [39]): 5.55
- pIC50 (Jurkat): 5.27
- pIC50 (A549 [40]): 5.09
- pIC50 (SK-OV-3 [41]): 5.10
- pIC50 (KB 3-1): 5.12
- IC50 at 72 h [42]: 7.79 µM
- Activity (MCF7 [43]): 19.9%
- Activity (MCF7 [44]): 43%
- Activity (MCF7 [45]): 90%
- pIC50 (MCF7 [46]): 6.15

SMILES: Nc1nc(S)nc2c1Oc1[nH]c(=O)[nH]c(=O)c1C2c1cccs1 (stereo unspecified)
- pIC50 (HCT-116 [2]): 5.03

Second part, led by results:

- pIC50 [1]: 7.24
SMILES: CCN(CC)CCC(=O)Nc1ccc(-c2nc3cc(Cl)ccc3o2)cc1

- inhibition [7]: 0.5%
- inhibition [8]: 15.6%
- inhibition [9]: 29.8%
- inhibition [10]: 70.3%
- inhibition [11]: 85.8%
SMILES: COc1ccc(CSc2nccc(OCC(=O)N3CCN(c4ccc(C)cc4)CC3)n2)cc1
- pIC50 [6]: 4.33

- inhibition [7]: 1.3%
- inhibition [8]: 2%
- inhibition [9]: 20.6%
- inhibition [10]: 53%
- inhibition [11]: 82.1%
SMILES: COc1ccc(CSc2nccc(OCC(=O)N3CCN(c4cccc(Cl)c4Cl)CC3)n2)cc1
- pIC50 [6]: 4.74

- pIC50 (MDA-MB-436 [4]): 5.05
SMILES: O=C(c1cc(Cc2n[nH]c(=O)c3ccccc23)ccc1F)N1CCN(C(=O)C2CC2)CC1 [OLAPARIB]
- pIC50 (MCF7 [16]): 5.49
- pIC50 (MDA-MB-231 [17]): 4.15

- pIC50 (SK-OV-3 [18]): 5.30
- pIC50 (A2780): 4.61
- pIC50 (MCF7 [19]): 4.42
- pIC50 (MDA-MB-231 [20]): 4.32
- pIC50 (HCT-116 [21]): 5.06
SMILES: CCNC(=S)N/N=C\c1ccc(-c2nc3c(oc4ccccc43)c(=O)[nH]2)cc1
- inhibition at 10 µM (SK-OV-3 [22]): 78.1%

- pIC50 [1]: 7.15
SMILES: O=C(CCN1CCOCC1)Nc1ccc(-c2nc3cc(Cl)ccc3o2)cc1
- pIC50 (MDA-MB-231 [32]): 5.21
- pIC50 (MCF7 [33]): 5.22

- pIC50 (MDA-MB-436 [34]): 4.44
- pIC50 [35]: 7.37
SMILES: NC(=O)c1cccc2[nH]c(-c3ccc(C(=O)N4CCN(C(=O)c5ccc(Cl)o5)CC4)cc3)nc12

- pIC50 [47]: 8.06
SMILES: NC(=O)c1cccc2[nH]c(-c3ccc(C(=O)NC4CCN(C(=O)c5ccc(Cl)o5)C4)cc3)nc12 (stereo unspecified)
